# Test results: patent publication US11034650B2, “Compounds useful for treating a Mannheimia haemolytica or Histophilus somni infection” (Intervet Inc., priority 2016, dated 2021)
# How the values were obtained:
# Format in all cases: cell-based
# [1] = system: Pasteurella multocida PM 6391 (ATCC 43137, reference strain); experiment: MIC, broth-microdilution (CLSI VET01-A4), strain PM 6391; settings: Pasteurella multocida strain PM 6391, broth-microdilution; unit assumed
# How it was run: (§1)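 Compounds were serially diluted twofold in microdilution trays. Growth was judged by eye, and the MIC was the lowest concentration showing no turbidity. Results were interpreted per CLSI VET01-S3.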
# [2] = system: Mannheimia haemolytica MH 13093 (XB0472-6014.1, BRD field isolate); experiment: MIC, broth-microdilution (CLSI VET01-A4), strain MH 13093; settings: Mannheimia haemolytica strain MH 13093, broth-microdilution; unit assumed
# How it was run: as §1
# [3] = system: Pasteurella multocida PM 10775 (080130003051, BRD field isolate); experiment: MIC, broth-microdilution (CLSI VET01-A4), strain PM 10775; settings: Pasteurella multocida strain PM 10775, broth-microdilution; unit assumed
# How it was run: as §1
# [4] = system: Mannheimia haemolytica MH 13065 (XB0446-6003.9, BRD field isolate); experiment: MIC, broth-microdilution (CLSI VET01-A4), strain MH 13065; settings: Mannheimia haemolytica strain MH 13065, broth-microdilution; unit assumed
# How it was run: as §1
# [5] = system: Mannheimia haemolytica MH 12587 (1071, BRD field isolate, macrolide-resistance: erm+, E+); experiment: MIC, broth-microdilution (CLSI VET01-A4), strain MH 12587; settings: Mannheimia haemolytica strain MH 12587, broth-microdilution; unit assumed
# How it was run: as §1
# [6] = system: Mannheimia haemolytica MH 10720 (154, BRD field isolate); experiment: MIC, broth-microdilution (CLSI VET01-A4), strain MH 10720; settings: Mannheimia haemolytica strain MH 10720, broth-microdilution; unit assumed
# How it was run: as §1
# [7] = system: Mannheimia haemolytica MH 6374 (ATCC 33396, reference strain); experiment: MIC, broth-microdilution (CLSI VET01-A4), strain MH 6374; settings: Mannheimia haemolytica strain MH 6374, broth-microdilution; unit assumed
# How it was run: as §1
# [8] = system: Pasteurella multocida PM 6267 (P 2225 (L386), reference strain, mouse infection strain); experiment: MIC, broth-microdilution (CLSI VET01-A4), strain PM 6267; settings: Pasteurella multocida strain PM 6267, broth-microdilution; unit assumed
# How it was run: as §1
# [9] = system: Mannheimia haemolytica MH 6357 (M7/2, reference strain, cattle infection strain); experiment: MIC, broth-microdilution (CLSI VET01-A4), strain MH 6357; settings: Mannheimia haemolytica strain MH 6357, broth-microdilution; unit assumed
# How it was run: as §1
# [10] = system: Pasteurella multocida PM 12080 (IV102277-0093, BRD field isolate); experiment: MIC, broth-microdilution (CLSI VET01-A4), strain PM 12080; settings: Pasteurella multocida strain PM 12080, broth-microdilution; unit assumed
# How it was run: as §1
Structure (SMILES),MIC PM 6391 [1] [µg/mL],MIC MH 13093 [2] [µg/mL],MIC PM 10775 [3] [µg/mL],MIC MH 13065 [4] [µg/mL],MIC MH 12587 [5] [µg/mL],MIC MH 10720 [6] [µg/mL],MIC MH 6374 [7] [µg/mL],MIC PM 6267 [8] [µg/mL],MIC MH 6357 [9] [µg/mL],MIC PM 12080 [10] [µg/mL]
CSC(C)(C)[C@H](NC(=O)c1ccc(C#Cc2ccc(CNC3CC3)nc2)cc1)C(=O)NO [Compound 335],0.4,0.8,≤ 0.1,0.4,3.1,≤ 0.1,0.8,0.4,0.4,0.2
C=CCNCc1ccc(C#Cc2ccc(C(=O)N[C@H](C(=O)NO)C(C)(C)SC)cc2)cn1 [Compound 336],1.6,1.6,≤ 0.1,1.6,3.1,0.2,0.8,0.8,0.8,0.8
COCCNCc1ccc(C#Cc2ccc(C(=O)N[C@H](C(=O)NO)C(C)(C)SC)cc2)cn1 [Compound 337],1.6,3.1,0.2,6.3,6.3,0.8,3.1,3.1,3.1,0.8
CSC(C)(C)C(NC(=O)c1ccc(C#Cc2ccc(CN3CCOCC3)nc2)cc1)C(=O)NO (stereo not drawn) [Compound 338],0.8,6.3,≤ 0.1,3.1,6.3,0.8,6.3,3.1,3.1,0.4
CSC(C)(C)[C@H](NC(=O)c1ccc(C#Cc2ccc(CNCc3ccccc3)nc2)cc1)C(=O)NO [Compound 339],0.8,1.6,≤ 0.1,0.8,1.6,≤ 0.1,1.6,0.8,0.8,0.2
COc1ccc(CNCc2ccc(C#Cc3ccc(C(=O)N[C@H](C(=O)NO)C(C)(C)SC)cc3)cn2)cc1 [Compound 340],1.6,1.6,0.2,1.6,3.1,0.4,1.6,1.6,0.8,0.8
CSC(C)(C)[C@H](NC(=O)c1ccc(C#Cc2ccc(CNCc3ccncc3)nc2)cc1)C(=O)NO [Compound 341],0.8,1.6,0.2,1.6,3.1,0.2,1.6,1.6,0.8,0.4
CSC(C)(C)[C@H](NC(=O)c1ccc(C#Cc2ccc(CNCC#N)nc2)cc1)C(=O)NO [Compound 342],1.6,3.1,0.2,3.1,6.3,0.4,3.1,1.6,1.6,0.8
CSC(C)(C)[C@H](NC(=O)c1ccc(C#Cc2ccc(CNCc3ccccn3)nc2)cc1)C(=O)NO [Compound 343],6.3,6.3,0.4,3.1,6.3,0.4,3.1,3.1,3.1,1.6
CSC(C)(C)[C@H](NC(=O)c1ccc(C#Cc2ccc(CNCc3ccco3)nc2)cc1)C(=O)NO [Compound 344],0.8,1.6,≤ 0.1,0.8,1.6,≤ 0.1,0.8,0.8,0.4,0.4
CSC(C)(C)[C@H](NC(=O)c1ccc(C#Cc2ccc(CNCC(F)(F)F)nc2)cc1)C(=O)NO [Compound 345],0.8,1.6,≤ 0.1,0.8,1.6,≤ 0.1,1.6,0.8,0.8,0.4
CSC(C)(C)[C@H](NC(=O)c1ccc(C#Cc2ccc(CNCc3ncccn3)nc2)cc1)C(=O)NO [Compound 346],3.1,12.5,0.4,6.3,12.5,0.8,6.3,6.3,6.3,1.6
CSC(C)(C)[C@H](NC(=O)c1ccc(C#Cc2ccc(CNCc3ncc(C)o3)nc2)cc1)C(=O)NO [Compound 347],0.8,1.6,≤ 0.1,1.6,3.1,0.2,1.6,1.6,0.8,0.8
CC(C)([C@H](NC(=O)c1ccc(C#Cc2ccc(CNC3CC3)nc2)cc1)C(=O)NO)S(C)(=O)=O [Compound 348],≤ 0.1,0.8,≤ 0.1,0.8,3.1,≤ 0.1,0.8,0.8,0.8,≤ 0.1
COCCNCc1ccc(C#Cc2ccc(C(=O)N[C@H](C(=O)NO)C(C)(C)S(C)(=O)=O)cc2)cn1 [Compound 349],0.8,3.1,≤ 0.1,6.3,6.3,0.8,3.1,1.6,1.6,0.4
CC(C)(C(NC(=O)c1ccc(C#Cc2ccc(CN3CCOCC3)nc2)cc1)C(=O)NO)S(C)(=O)=O (stereo not drawn) [Compound 350],0.8,6.3,≤ 0.1,6.3,12.5,1.6,6.3,6.3,6.3,0.4
CC(C)([C@H](NC(=O)c1ccc(C#Cc2ccc(CNCc3ccccc3)nc2)cc1)C(=O)NO)S(C)(=O)=O [Compound 351],0.4,0.8,≤ 0.1,1.6,1.6,≤ 0.1,0.4,0.4,0.4,≤ 0.1
COc1ccc(CNCc2ccc(C#Cc3ccc(C(=O)N[C@H](C(=O)NO)C(C)(C)S(C)(=O)=O)cc3)cn2)cc1 [Compound 352],0.4,1.6,≤ 0.1,1.6,3.1,0.2,0.8,0.8,0.8,0.2
CC(C)([C@H](NC(=O)c1ccc(C#Cc2ccc(CNCc3ccccn3)nc2)cc1)C(=O)NO)S(C)(=O)=O [Compound 353],1.6,6.3,0.4,6.3,12.5,0.8,6.3,3.1,3.1,0.8
CC(C)([C@H](NC(=O)c1ccc(C#Cc2ccc(CNCc3ccco3)nc2)cc1)C(=O)NO)S(C)(=O)=O [Compound 354],0.4,0.8,≤ 0.1,1.6,1.6,0.2,0.8,0.8,0.4,0.2
CC(C)([C@H](NC(=O)c1ccc(C#Cc2ccc(CNCC(F)(F)F)nc2)cc1)C(=O)NO)S(C)(=O)=O [Compound 355],0.2,1.6,≤ 0.1,0.8,1.6,≤ 0.1,1.6,0.8,0.8,≤ 0.1
